Source: patent publication US20230116602A1, “MCL1 INHIBITORS AND USES THEREOF” (California Institute of Technology, priority 2019, published 2023)
pIC50, pKd: −log10 of the molar value. Where two headings read alike, the source gives them in different places.

How the values were obtained:
MCL1 = MCL1 (Homo sapiens, UniProt Q07820); test: MCL1 affinity assay (competition binding, qPCR readout); conditions: recombinant MCL1, 11-point 3-fold dilution series
In short: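 Kds derived from an 11-point 3-fold compound series measured by qPCR of protein eluted from ligand beads. Recombinant, DNA-tagged protein from E. coli or HEK-293 was mixed with compound and peptide-liganded beads in SeaBlock/PBS/Tween/DTT buffer for 1 hour at room temperature (0.9% DMSO).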

BCL2 = BCL2 (Homo sapiens, UniProt P10415); test: BCL2 affinity assay (competition binding, qPCR readout); conditions: recombinant BCL2, 11-point 3-fold dilution series
Procedure: (§1) Recombinant MCL1, BCL2 and BCXL proteins were prepared in either an E. coli host derived from the BL21 strain or in HEK-293 cells. The recombinant proteins were subsequently tagged with DNA for qPCR detection. Streptavidin-coated magnetic beads were treated for 30 minutes at room temperature with the respective biotinylated peptide ligands for each recombinant protein to generate affinity resins for the assays. The liganded beads were blocked with excess biotin and washed with blocking buffer (SeaBlock (Pierce), 1% BSA, 0.05% Tween 20, 1 mM DTT) to remove unbound ligand and to reduce nonspecific binding. Binding reactions were assembled by combining recombinant protein, liganded affinity beads, and test compounds in 1× binding buffer (20% SeaBlock, 0.17×PBS, 0.05% Tween 20, 6 mM DTT). Test compounds were prepared as 111X stocks in 100% DMSO. The compounds were then diluted directly into the assays such that the final concentration of DMSO was 0.9%. The assay plates were incubated at room temperature with shaking for 1 hour and the affinity beads were washed with wash buffer (1×PBS, 0.05% Tween 20). The beads were then re-suspended in elution buffer (1×PBS, 0.05% Tween 20, 0.5 μM non-biotinylated affinity ligand) and incubated at room temperature with shaking for 30 minutes. The recombinant protein concentration in the eluates was measured by qPCR. Kds were determined using an 11-point 3-fold compound dilution series with three DMSO control points.

BCLXL = BCLXL (Homo sapiens, UniProt Q07817); test: BCLXL affinity assay (competition binding, qPCR readout); conditions: recombinant BCLXL, 11-point 3-fold dilution series
Procedure: as §1

[1] = tested on: drug-sensitive cell lines of Table 3; test: Cell line growth retardation assay, sensitive cohort; type: cell-based, Human; conditions: for pIC50: arithmetic mean of IC50s over the sensitive cohort of Table 3, 6 days growth, read-out: AvgSen IC50; for Fold Diff: average IC50 of resistant cohort divided by average IC50 of sensitive cohort
In short: (§2)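 Over 6 days of treatment at six concentrations (0.0032–10 μM), given after a 24 h post-seeding rest, population doublings were counted by imaging against a pre-dose baseline and compared with vehicle. Per-line IC50 values came from dose-response fits; cohort averages used arithmetic means, with sensitive/resistant grouping based on response to reference MCL1 inhibitors.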

[2] = tested on: drug-resistant cell lines of Table 3; test: Cell line growth retardation assay, resistant cohort; type: cell-based, Human; conditions: arithmetic mean of IC50s over the resistant cohort of Table 3, 6 days growth, read-out: AvgRes IC50
In short: as §2

Chain of MCL1 (Q07820 whole entry): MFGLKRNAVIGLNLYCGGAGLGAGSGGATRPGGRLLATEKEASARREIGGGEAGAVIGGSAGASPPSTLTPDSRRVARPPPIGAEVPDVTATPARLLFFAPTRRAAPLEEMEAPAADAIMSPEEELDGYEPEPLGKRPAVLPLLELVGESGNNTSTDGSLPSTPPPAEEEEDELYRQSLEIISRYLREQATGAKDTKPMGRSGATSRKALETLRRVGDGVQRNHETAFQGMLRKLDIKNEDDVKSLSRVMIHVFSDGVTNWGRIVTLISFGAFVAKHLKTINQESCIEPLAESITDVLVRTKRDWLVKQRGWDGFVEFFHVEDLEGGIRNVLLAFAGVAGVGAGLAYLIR
Chain of BCLXL (Q07817 whole entry): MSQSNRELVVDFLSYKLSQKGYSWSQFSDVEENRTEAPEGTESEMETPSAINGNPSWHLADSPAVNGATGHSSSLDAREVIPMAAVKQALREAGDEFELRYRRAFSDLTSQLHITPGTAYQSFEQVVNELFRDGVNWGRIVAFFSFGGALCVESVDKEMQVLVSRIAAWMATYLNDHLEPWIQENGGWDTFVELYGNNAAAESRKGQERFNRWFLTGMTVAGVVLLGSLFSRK
Chain of BCL2 (P10415 whole entry): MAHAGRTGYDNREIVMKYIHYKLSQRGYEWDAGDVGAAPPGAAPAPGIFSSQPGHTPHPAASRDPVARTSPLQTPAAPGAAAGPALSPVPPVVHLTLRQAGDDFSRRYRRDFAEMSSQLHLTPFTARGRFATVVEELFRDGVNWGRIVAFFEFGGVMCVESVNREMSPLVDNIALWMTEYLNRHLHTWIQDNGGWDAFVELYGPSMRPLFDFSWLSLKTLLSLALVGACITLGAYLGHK

Row | Compound | pKd (MCL1) | pKd (BCL2) | pKd (BCLXL) | pIC50 ([1]; Homo sapiens, 144 h) | Fold Diff [1] | pIC50 ([2]; Homo sapiens, 144 h) | pIC50 [1] | pIC50 [2]
1 | COc1ccccc1-c1nccc(COc2ccccc2C[C@@H](Oc2nsc3cnc(-c4ccc(F)cc4)c(-c4ccc(OCCN5CCN(C)CC5)c(Cl)c4C)c23)C(=O)O)n1 [Compound 40] | ≥ 7.00 | < 5.82 | < 5.82 | ≥ 6.00 | + (“+” represents a fold difference of 10 or more) | < 5.30 | – | –
2 | Cc1c(-c2c(-c3cn(C)c4ccccc34)ncc3snc(O[C@H](Cc4ccccc4OCc4ccnn4CC(F)(F)F)C(=O)O)c23)ccc(OCCN2CCN(C)CC2)c1Cl (atropisomer, axis not shown) [Compound 20] | 5.82 to 6.30 | < 5.82 | < 5.82 | < 5.30 | − (“−” represents a fold difference less than 10) | < 5.30 | – | –
3 | Cc1cc2cccc(-c3ncc4snc(O[C@H](Cc5ccccc5OCc5ccnn5CC(F)(F)F)C(=O)O)c4c3-c3ccc(OCCN4CCN(C)CC4)c(Cl)c3C)c2[nH]1 (atropisomer, axis not shown) [Compound 17] | 5.82 to 6.30 | < 5.82 | < 5.82 | < 5.30 | − (“−” represents a fold difference less than 10) | < 5.30 | – | –
4 | Cc1c(-c2c(-c3cccc(F)c3)ncc3snc(O[C@H](Cc4ccccc4OCc4ccnn4CC(F)(F)F)C(=O)O)c23)ccc(OCCN2CCN(C)CC2)c1Cl (atropisomer, axis not shown) [Compound 26] | 6.30 to 7.00 | < 5.82 | < 5.82 | ≥ 6.00 | + (“+” represents a fold difference of 10 or more) | < 5.30 | – | –
5 | COc1cccc(-c2ncc3snc(O[C@H](Cc4ccccc4OCc4ccnc(-c5ccccc5OC)n4)C(=O)O)c3c2-c2ccc(O)c(Cl)c2C)c1 (atropisomer, axis not shown) [Compound 41] | ≥ 7.00 | < 5.82 | < 5.82 | 5.30 to 6.00 | − (“−” represents a fold difference less than 10) | < 5.30 | – | –
6 | COc1cccc(-c2ncc3snc(O[C@H](Cc4ccccc4OCc4ccnc(-c5ccccc5OC)n4)C(=O)O)c3c2-c2ccc(OCCC3CCN(C)CC3)c(Cl)c2C)c1 (atropisomer, axis not shown) [Compound 45] | ≥ 7.00 | < 5.82 | < 5.82 | 5.30 to 6.00 | − (“−” represents a fold difference less than 10) | < 5.30 | – | –
7 | COc1cccc(-c2ncc3snc(O[C@H](Cc4ccccc4OCc4ccnc(-c5ccccc5OC)n4)C(=O)O)c3c2-c2ccc(OCCCN(C)C)c(Cl)c2C)c1 (atropisomer, axis not shown) [Compound 47] | ≥ 7.00 | < 5.82 | < 5.82 | ≥ 6.00 | + (“+” represents a fold difference of 10 or more) | < 5.30 | – | –
8 | Cc1c(-c2c(-c3ccc(F)cc3)ncc3snc(O[C@H](Cc4ccccc4OCc4ccnn4CC(F)(F)F)C(=O)O)c23)ccc(OCCN2CCN(C)CC2)c1Cl (single isomer, unassigned) [Compound 5] | < 5.82 | < 5.82 | < 5.82 | – | − (“−” represents a fold difference less than 10) | – | < 5.30 | < 5.30
9 | COc1ccccc1-c1nccc(COc2ccccc2C[C@@H](Oc2nsc3cnc(C4=CCOCC4)c(-c4ccc(OCCN5CCN(C)CC5)c(Cl)c4C)c23)C(=O)O)n1 (atropisomer, axis not shown) [Compound 54] | ≥ 7.00 | < 5.82 | < 5.82 | 5.30 to 6.00 | − (“−” represents a fold difference less than 10) | < 5.30 | – | –
10 | Cc1c(-c2c(Cl)ncc3snc(O[C@H](Cc4ccccc4OCc4ccnn4CC(F)(F)F)C(=O)O)c23)ccc(OCCN2CCN(C)CC2)c1Cl (single isomer, unassigned) [Compound 3] | < 5.82 | < 5.82 | < 5.82 | < 5.30 | − (“−” represents a fold difference less than 10) | < 5.30 | – | –
